According to article PMC9235892 (Virulence, 2022):

Test system: SARS-CoV-2 169 R
Assay type: cell-based

Compound	effect on viral load in 169 R-infected cultures (plaque assay)
CN1CCN(C[C@@H](O)CO[C@H]2CC[C@@]3(C)C(CCC4C3CC[C@]3(C)C(=O)CCC43)C2)CC1 (some centres unmarked) [LNB169]	no reduction in viral load
CN1CCN(C[C@H](O)CO[C@H]2CC[C@@]3(C)C(CCC4C3CC[C@]3(C)C(=O)CCC43)C2)CC1 (some centres unmarked) [LNB167]	no reduction in viral load
